According to patent US9999218B2, “Pest control formulations and methods of making and using same” (0903608 B.C. Ltd., priority 2011, dated 2018):
Read-outs that look alike come from different tables or passages of the source.

Tests used:
adult bed bugs [1] = type: in vivo
bed bug eggs = type: in vivo, Cimex lectularius L.
Description: Immediately after infestation, and at 1-, 2-, and 3-week intervals thereafter, the numbers of hatched and unhatched eggs present in the sealed dishes were counted and compared to other Treated Groups. One egg was counted as “hatched” for every new nymph present in the petri dish when compared with the prior interval. Table 13 compares the % egg eclosion of the treated groups at the 3-week observation interval. The maximum mortality data obtained in Example 3, above, are included for comparison purposes.

adult bed bugs [2] = conditions: […] neem oil + […] named solvent in isopropanol, 4 h dried in highly-ventilated room; for Max. Mortality: observed until 14 days
Procedure: This example illustrates the dry residual pesticidal activity of formulations including neem oil and various organic solvents including alcohols, ketones, esters and carboxylic acids. […] The percent by weight of each solvent was varied to ensure a consistent molar quantity of solvent in each solution. Treated Groups for each solution were prepared by treating filter paper, 90 mm in diameter, with 1.0 mL of solution and allowing it to air dry for four hours in a highly-ventilated room. A known number of adults were added to each treated dish, four hours after treatment. Bed bug mortality was assessed immediately after infestation and at 1-hour, 2-hour, 4-hour, 6-hour, 8-hour, 10-hour, 12-hour, and 24-hour intervals, and at 24-hour intervals thereafter until 14 days after infestation. Adult bed bugs were counted dead if they were unresponsive when stimulated.

[3] = […] neem oil + […] named solvent in isopropanol, 4 h dried residue
[4] = […] neem oil + […] named solvent in isopropanol, 4 h dried residue, observed until 14 days
[5] = […] neem oil + named solvent in isopropanol, 4 h dried residue, 3 weeks after infestation

| Structure (SMILES) | Time to Max Mortality (adult bed bugs [1]; [3]) [h] | Max. Mortality (adult bed bugs [1]; [4]) [%] | % Eclosion (bed bug eggs; [5]) [%] | Time to Max Mortality (adult bed bugs [2]) [days] | Max. Mortality (adult bed bugs [2]) [%] | also measured |
| --- | --- | --- | --- | --- | --- | --- |
| CC(O)c1ccccc1 (centres unmarked) [1-Phenylethanol] | 24 | 100 | 0 | – | – | – |
| O=C(c1ccc(O)cc1O)c1ccc(O)cc1O [2,2′-4,4′ Tetrahydroxybenzophenone] | 24 | 100 | 0 | – | – | – |
| CC(C)CC(O)CC(C)C [2,6-Dimethyl-4-heptanol] | – | – | – | 14 | 20 | – |
| CCCCCCC(CO)CCCC (centres unmarked) [2-Butyl-1-octanol] | – | – | – | 8 | 100 | – |
| CCCCC(CC)CO (centres unmarked) [2-Ethyl-1-hexanol] | – | – | 0 | – | – | Max. Mortality (adult bed bugs [1]; in vivo): 100%; Time to Max Mortality (adult bed bugs [1]; in vivo): 72 h |
| CC(C)(O)c1ccccc1 [2-Phenyl-2-propanol] | – | – | – | 1 | 100 | – |
| CC(C)O [2-Propanol (IPA), 2-Propanol] | 140 | 40 | – | – | – | – |
| CCCCCCCCC(CO)CCCCCC (centres unmarked) [2-hexyl-1-decanol] | – | – | – | 14 | 100 | – |
| Cc1ccc(O)c(C=O)c1 [2-hydroxy-5-methyl benzaldehyde] | – | – | – | 1 | 100 | – |
| CC(=O)OC1CCCCC1C(C)(C)C (centres unmarked) [2-tert-Butylcyclohexylacetate] | 96 | 100 | 20 | – | – | – |
| CC(=O)c1ccc(C)cc1C [2′,4′-Dimethylacetophenone] | 24 | 100 | 0 | – | – | – |
| CC(=O)c1ccccc1O [2′-Hydroxyacetophenone] | – | – | – | 1 | 100 | – |
| Cc1ccc(CO)cc1C [3,4-dimethylbenzyl alcohol] | – | – | – | 14 | 100 | – |
| CC(=O)c1ccc(C)c(C)c1 [3′,4′-Dimethylacetophenone] | 48 | 100 | 0 | – | – | – |
| O=C(O)c1ccc(O)cc1 [4-Hydroxy benzoic acid] | – | – | – | 1 | 100 | – |
| Cc1cc(C(=O)O)ccc1O [4-Hydroxy-3-methyl benzoic acid] | – | – | – | 14 | 60 | – |
| CC(=O)c1ccc(O)cc1 [4′-Hydroxyacetophenone] | – | – | – | 9 | 50 | – |
| CCCCC(=O)c1ccc(O)cc1 [4′-Hydroxyvalerophenone] | – | – | – | 14 | 70 | – |
| CC(=O)c1ccc(C)cc1 [4′-Methylacetophenone] | 48 | 100 | 0 | – | – | – |
| CCC(=O)c1ccc(C)cc1 [4′-Methylpropiophenone] | 24 | 100 | 0 | – | – | – |
| Cc1ccc(C(C)O)cc1 (stereo not drawn) [Alpha-4-dimethylbenzyl alcohol] | – | – | – | 1 | 100 | – |
| O=Cc1ccccc1 [Benzaldehyde] | 336 | 100 | 0 | – | – | – |
| c1ccccc1 [Benzene] | – | – | – | 14 | 40 | – |
| O=C(O)c1ccccc1 [Benzoic acid] | – | – | 0 | – | – | Max. Mortality (adult bed bugs [1]; in vivo): 100%; Time to Max Mortality (adult bed bugs [1]; in vivo): 48 h |
| OCc1ccccc1 [Benzyl alcohol] | 24 | 100 | 0 | – | – | – |
| O=C(OCc1ccccc1)c1ccccc1 [Benzyl benzoate] | – | – | – | 8 | 100 | – |
| COCc1ccccc1 [Benzyl methyl ether] | – | – | – | 8 | 60 | – |

| Structure (SMILES) | Time to Max Mortality (adult bed bugs [1]; [3]) [h] | Max. Mortality (adult bed bugs [1]; [4]) [%] | % Eclosion (bed bug eggs; [5]) [%] | Time to Max Mortality (adult bed bugs [2]) [days] | Max. Mortality (adult bed bugs [2]) [%] | also measured |
| --- | --- | --- | --- | --- | --- | --- |
| CCCCOc1ccccc1 [Butyl phenyl ether] | – | – | – | 6 | 100 | – |
| CCCC(=O)c1ccccc1 [Butyrophenone] | 24 | 100 | 0 | – | – | – |
| OC1CCCCC1 [Cyclohexanol] | 336 | 60 | 60 | – | – | – |
| O=C1CCCCC1 [Cyclohexanone] | 240 | 50 | 40 | – | – | – |
| O=C(c1ccccc1)C1CCCCC1 [Cyclohexyl phenyl ketone] | – | – | – | 8 | 90 | – |
| c1ccc(COCc2ccccc2)cc1 [Dibenzyl ether] | – | – | – | 7 | 90 | – |
| c1ccc(Oc2ccccc2)cc1 [Diphenyl ether] | – | – | – | 3 | 100 | – |
| CCOC(C)=O [Ethyl acetate] | 336 | 30 | 100 | – | – | – |
| CCOC(=O)c1ccccc1 [Ethyl benzoate] | – | – | – | 2 | 100 | – |
| CCCCCC(=O)c1ccccc1 [Hexanophenone] | 140 | 100 | 0 | – | – | – |
| CC(C)COC(=O)c1ccccc1 [Isobutyl benzoate] | – | – | – | 8 | 90 | – |
| CC(C)C(=O)c1ccccc1 [Isobutyrophenone] | 48 | 100 | 0 | – | – | – |
| CC(=O)C1CCCCC1 [Methylcyclohexylketone] | 264 | 70 | 80 | – | – | – |
| Oc1ccccc1 [Phenol] | – | – | – | 1 | 100 | – |
| CCC(=O)c1ccccc1 [Propiophenone] | 24 | 100 | 0 | – | – | – |
| CCCOC(=O)c1ccc(O)cc1 [Propyl-4-hydroxybenzoate] | 24 | 100 | 0 | – | – | – |
| CCCCO [Solution 1-Butanol, 1-Butanol] | – | – | – | – | – | Max. Mortality (adult bed bugs [1]; in vivo): 40%; Time to Max Mortality (adult bed bugs [1]; in vivo): 190 h; % Eclosion (bed bug eggs; in vivo): 100% |
| CCCCCCCCCCO [Solution 1-Decanol, 1-Decanol] | – | – | 0 | – | – | Max. Mortality (adult bed bugs [1]; in vivo): 100%; Time to Max Mortality (adult bed bugs [1]; in vivo): 264 h |
| CCCCCCO [Solution 1-Hexanol, 1-Hexanol] | – | – | 0 | – | – | Max. Mortality (adult bed bugs [1]; in vivo): 40%; Time to Max Mortality (adult bed bugs [1]; in vivo): 336 h |
| CCCCCCCCCO [Solution 1-Nonanol, 1-Nonanol] | – | – | – | 2 | 100 | – |
| CCCCCCCCCCCCO [Solution 1-dodecanol, 1-dodecanol] | – | – | – | 14 | 90 | – |
| CCCCCCC(C)O (centres unmarked) [Solution 2-Octanol, 2-Octanol] | – | – | – | 2 | 100 | – |
| CCCCC(O)CC (centres unmarked) [Solution 3-Heptanol, 3-Heptanol] | – | – | – | 14 | 30 | – |
| Cc1ccccc1 [Toluene] | – | – | – | 14 | 50 | – |
| C/C=C/c1ccc(OC)cc1 [Trans-anethole] | – | – | – | 5 | 100 | – |
| Cc1ccc(C=O)cc1 [p-Tolualdehyde] | – | – | – | 6 | 50 | – |
| Cc1ccc(C)cc1 [p-Xylene] | – | – | – | 14 | 30 | – |
